Data taken from PubChem BioAssay (NCI).
Several values for one entry are separate records, joined by “and”; a condition that tells them apart may be missing. Identical values can stand only once.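 All cell lines were grown in 96-well plates and treated with compound for 48 hours. GI50 = concentration required for 50% inhibition of growth. TGI denotes the concentration required for complete inhibition of growth.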

Tests used:
Assay in all cases: NCI tumour cell line growth inhibition, 48 h
786-0 renal = system: 786-0 renal
A498 renal = system: A498 renal
A549 NSCLC = system: A549 NSCLC
ACHN renal = system: ACHN renal
BT-549 breast = system: BT-549 breast
CAKI-1 renal = system: CAKI-1 renal
CCRF-CEM leukemia = system: CCRF-CEM leukemia
COLO 205 colon = system: COLO 205 colon
DLD-1 colon = system: DLD-1 colon
DMS 114 small cell lung = system: DMS 114 small cell lung
DMS 273 small cell lung = system: DMS 273 small cell lung
EKVX NSCLC = system: EKVX NSCLC
HCC-2998 colon = system: HCC-2998 colon
HCT-116 colon = system: HCT-116 colon
HCT-15 colon = system: HCT-15 colon
HL-60(TB) leukemia = system: HL-60(TB) leukemia
HOP-18 NSCLC = system: HOP-18 NSCLC
HOP-62 NSCLC = system: HOP-62 NSCLC
HOP-92 NSCLC = system: HOP-92 NSCLC
HS 578T breast = system: HS 578T breast
HT29 colon = system: HT29 colon
IGROV1 ovarian = system: IGROV1 ovarian
K-562 leukemia = system: K-562 leukemia
KM12 colon = system: KM12 colon
KM20L2 colon = system: KM20L2 colon
LOX IMVI melanoma = system: LOX IMVI melanoma
LXFL 529 NSCLC = system: LXFL 529 NSCLC
M14 melanoma = system: M14 melanoma
MALME-3M melanoma = system: MALME-3M melanoma
MCF7 breast = system: MCF7 breast
MDA-MB-231 breast = system: MDA-MB-231 breast

Q: With `CO[C@@]12[C@H](COC(N)=O)C3=C(C(=O)C(C)=C(N)C3=O)N1C[C@@H]1N[C@@H]12` as the molecule, how does the GI50 (786-0 renal) read?
A: 0.717 µM

Q: And the TGI (786-0 renal)?
A: 4.99 µM and 10.2 µM and 4.74 µM

Q: What about the GI50 (A498 renal) of the same molecule?
A: 1.05 µM

Q: And the TGI (A498 renal)?
A: 2.68 µM and 2.64 µM

Q: And the TGI (A549 NSCLC)?
A: 8.52 µM and 25 µM and 2.78 µM

Q: And the TGI (ACHN renal)?
A: 4.88 µM and 1.76 µM

Q: And the GI50 (BT-549 breast)?
A: 0.799 µM

Q: And the TGI (BT-549 breast)?
A: 9.38 µM and 6.85 µM and 6.4 µM

Q: And the TGI (CAKI-1 renal)?
A: 6.18 µM and 25 µM and 3.07 µM

Q: What about the GI50 (CCRF-CEM leukemia) of the same molecule?
A: 0.126 µM and 0.0625 µM

Q: What about the TGI (CCRF-CEM leukemia) of the same molecule?
A: 13.2 µM and 1.96 µM and 18.6 µM

Q: What about the GI50 (COLO 205 colon) of the same molecule?
A: 1.7 µM

Q: And the TGI (COLO 205 colon)?
A: 5.21 µM and 8.43 µM and 7.05 µM

Q: And the TGI (DLD-1 colon)?
A: 17.2 µM

Q: And the TGI (DMS 114 small cell lung)?
A: 5.08 µM

Q: What about the TGI (DMS 273 small cell lung) of the same molecule?
A: 3.6 µM

Q: And the GI50 (EKVX NSCLC)?
A: 7.98 µM

Q: And the TGI (EKVX NSCLC)?
A: 17.1 µM and 20.8 µM and 31.7 µM

Q: And the GI50 (HCC-2998 colon)?
A: 1.14 µM

Q: And the TGI (HCC-2998 colon)?
A: 2.88 µM and 2.98 µM and 3.91 µM

Q: What about the GI50 (HCT-116 colon) of the same molecule?
A: 1.26 µM and 1.15 µM

Q: What about the TGI (HCT-116 colon) of the same molecule?
A: 6.06 µM and 4.21 µM and 8.46 µM

Q: And the GI50 (HCT-15 colon)?
A: 1.92 µM and 1.67 µM

Q: What about the TGI (HCT-15 colon) of the same molecule?
A: 10.4 µM and 16.4 µM and 43.4 µM

Q: And the GI50 (HL-60(TB) leukemia)?
A: 0.126 µM

Q: And the TGI (HOP-18 NSCLC)?
A: 7.59 µM

Q: And the GI50 (HOP-62 NSCLC)?
A: 0.643 µM

Q: And the GI50 (HOP-92 NSCLC)?
A: 1.81 µM and 1.75 µM

Q: What about the TGI (HOP-92 NSCLC) of the same molecule?
A: 12.4 µM and 5.53 µM and 7.2 µM

Q: And the GI50 (HS 578T breast)?
A: 4.21 µM and 5.26 µM

Q: What about the TGI (HS 578T breast) of the same molecule?
A: 15.3 µM and 14 µM and 52.1 µM

Q: And the GI50 (HT29 colon)?
A: 1.45 µM and 0.542 µM

Q: What about the TGI (HT29 colon) of the same molecule?
A: 12.3 µM and 13 µM and 23.7 µM

Q: What about the GI50 (IGROV1 ovarian) of the same molecule?
A: 3.24 µM and 1.5 µM

Q: And the TGI (IGROV1 ovarian)?
A: 8.88 µM and 8.21 µM and 5.97 µM

Q: What about the GI50 (K-562 leukemia) of the same molecule?
A: 1.52 µM

Q: What about the TGI (K-562 leukemia) of the same molecule?
A: 19.6 µM and 15.6 µM and > 100 µM

Q: What about the GI50 (KM12 colon) of the same molecule?
A: 1.57 µM and 3.5 µM

Q: And the TGI (KM20L2 colon)?
A: 10.2 µM

Q: And the GI50 (LOX IMVI melanoma)?
A: 0.615 µM

Q: And the TGI (LOX IMVI melanoma)?
A: 4.26 µM and 3.47 µM

Q: And the TGI (LXFL 529 NSCLC)?
A: 7.53 µM

Q: And the GI50 (M14 melanoma)?
A: 1.09 µM

Q: What about the TGI (M14 melanoma) of the same molecule?
A: 4.08 µM and 12.2 µM and 2.06 µM

Q: And the GI50 (MALME-3M melanoma)?
A: 2.26 µM and 1.38 µM

Q: What about the TGI (MALME-3M melanoma) of the same molecule?
A: 4.06 µM and 6.53 µM and 4.03 µM

Q: What about the GI50 (MCF7 breast) of the same molecule?
A: 0.215 µM and 0.0824 µM

Q: And the TGI (MCF7 breast)?
A: 8.6 µM and 15.1 µM and 47 µM

Q: What about the GI50 (MDA-MB-231 breast) of the same molecule?
A: 17.5 µM and 9.42 µM

Q: And the TGI (MDA-MB-231 breast)?
A: 16.8 µM and 25 µM and 56.3 µM
